The text below walks through data of US6407088B1 (priority 2000, dated 2002).

Values joined by “and” are separate entries in the source; they are usually repeats but may differ in a detail not shown here. Identical values can stand only once. “Also recorded” adds a separate entry of the source. Like-named read-outs stand apart in the source and are kept apart here. Marks after values point to notes of the source that are not given here.

Data set [1] concerns Hartley guinea pigs.
For data set [2], the system named is Kunming mice. Nature of the data set: Acetic acid-induced writhing test in mice. Format: in vivo.
Data set [3] relates to mice. Nature of the data set: Analgesic time-effect relation in acetic acid-induced writhing test in mice. The format is in vivo. To be noted: for IR, inhibition rate / AWI, average writhing incidence: aspirin ig. (Writhing tests count abdominal constrictions after an irritant is injected.)
Data set [4] has as its system Kunming mice. The conditions noted are these: mouse, in vivo.
Data set [5] deals with Salmonella TA102.
For data set [6], the system named is Chinese hamster lung (CHL) cells. Format: cell-based. The conditions noted are these: for Chromosomal aberration rate (%): MMC 0.25 μg/mL, no metabolic activation, P<0.01. Here is the method: The Chinese hamster lung (CHL) cells were exposed to tetrodotoxin at the concentrations of 5.0, 10.0, and 20.0 μg/mL for 24 or 48 hours in the absence of Sg activation and for 6 hours in the presence of S9 activation.

The subject of data set [7] is rabbits' quadriceps femoris muscles.
Data set [8] has as its system Kunming mice. To be noted: mouse, in vivo, ip.
The test system of data set [9] is rabbits. The arrangement: species or system New Zealand white rabbits. The conditions noted are these: rabbit, in vivo, iv.
The test system of data set [10] is monkeys. The conditions noted are these: rhesus monkey, in vivo.
Data set [11] relates to Shanghai mice. To be noted: mouse, in vivo.
Data set [12] deals with TTX-resistant sodium channel (TTX-R) (Rattus norvegicus, UniProt Q62968). The conditions noted are these: cited from earlier work.
Data set [13] deals with mouse's marrow cells. The conditions noted are these: in vivo.
Data set [14] deals with anesthetized dogs. The conditions noted are these: dog, in vivo.
In data set [15] the test system is TTX-sensitive sodium channel (TTX-S). The conditions noted are these: cited from earlier work.
Data set [16] has as its system late term cancer patients. To be noted: human, in vivo.
Data set [17] deals with Rhesus monkeys. To be noted: rhesus monkey, in vivo.
For data set [18], the system named is mice. The conditions noted are these: mouse, in vivo.
Data set [19] relates to monkeys. The conditions noted are these: rhesus monkey, in vivo. This is another data set of the same source.
Data set [20] relates to Wistar rats. Nature of the data set: Formalin induced inflammation test in rats. The conditions noted are these: rat, in vivo.
In data set [21] the target is hPN3 (Homo sapiens, UniProt Q9Y5Y9). The conditions noted are these: cited from earlier work.
Data set [22] concerns rats. To be noted: rat, in vivo.
Data set [23] relates to 2% red blood cell (RBC) suspension. Format: cell-based, rabbit.
Setting [24] is: Aspirin 100 mg/kg, Table 5 (im).
Where [25] appears, read: Aspirin 200 mg/kg, Table 5 (im).
Where [26] appears, read: Aspirin 300 mg/kg, Table 5 (im).
The mark [27] stands for this setting: Aspirin 400 mg/kg, Table 5 (im).
Where [28] appears, read: quadriceps femoris, 1 mL im, 48 hours.

TTX-resistant sodium channel (TTX-R), sequence (Q62968 whole entry, looked up): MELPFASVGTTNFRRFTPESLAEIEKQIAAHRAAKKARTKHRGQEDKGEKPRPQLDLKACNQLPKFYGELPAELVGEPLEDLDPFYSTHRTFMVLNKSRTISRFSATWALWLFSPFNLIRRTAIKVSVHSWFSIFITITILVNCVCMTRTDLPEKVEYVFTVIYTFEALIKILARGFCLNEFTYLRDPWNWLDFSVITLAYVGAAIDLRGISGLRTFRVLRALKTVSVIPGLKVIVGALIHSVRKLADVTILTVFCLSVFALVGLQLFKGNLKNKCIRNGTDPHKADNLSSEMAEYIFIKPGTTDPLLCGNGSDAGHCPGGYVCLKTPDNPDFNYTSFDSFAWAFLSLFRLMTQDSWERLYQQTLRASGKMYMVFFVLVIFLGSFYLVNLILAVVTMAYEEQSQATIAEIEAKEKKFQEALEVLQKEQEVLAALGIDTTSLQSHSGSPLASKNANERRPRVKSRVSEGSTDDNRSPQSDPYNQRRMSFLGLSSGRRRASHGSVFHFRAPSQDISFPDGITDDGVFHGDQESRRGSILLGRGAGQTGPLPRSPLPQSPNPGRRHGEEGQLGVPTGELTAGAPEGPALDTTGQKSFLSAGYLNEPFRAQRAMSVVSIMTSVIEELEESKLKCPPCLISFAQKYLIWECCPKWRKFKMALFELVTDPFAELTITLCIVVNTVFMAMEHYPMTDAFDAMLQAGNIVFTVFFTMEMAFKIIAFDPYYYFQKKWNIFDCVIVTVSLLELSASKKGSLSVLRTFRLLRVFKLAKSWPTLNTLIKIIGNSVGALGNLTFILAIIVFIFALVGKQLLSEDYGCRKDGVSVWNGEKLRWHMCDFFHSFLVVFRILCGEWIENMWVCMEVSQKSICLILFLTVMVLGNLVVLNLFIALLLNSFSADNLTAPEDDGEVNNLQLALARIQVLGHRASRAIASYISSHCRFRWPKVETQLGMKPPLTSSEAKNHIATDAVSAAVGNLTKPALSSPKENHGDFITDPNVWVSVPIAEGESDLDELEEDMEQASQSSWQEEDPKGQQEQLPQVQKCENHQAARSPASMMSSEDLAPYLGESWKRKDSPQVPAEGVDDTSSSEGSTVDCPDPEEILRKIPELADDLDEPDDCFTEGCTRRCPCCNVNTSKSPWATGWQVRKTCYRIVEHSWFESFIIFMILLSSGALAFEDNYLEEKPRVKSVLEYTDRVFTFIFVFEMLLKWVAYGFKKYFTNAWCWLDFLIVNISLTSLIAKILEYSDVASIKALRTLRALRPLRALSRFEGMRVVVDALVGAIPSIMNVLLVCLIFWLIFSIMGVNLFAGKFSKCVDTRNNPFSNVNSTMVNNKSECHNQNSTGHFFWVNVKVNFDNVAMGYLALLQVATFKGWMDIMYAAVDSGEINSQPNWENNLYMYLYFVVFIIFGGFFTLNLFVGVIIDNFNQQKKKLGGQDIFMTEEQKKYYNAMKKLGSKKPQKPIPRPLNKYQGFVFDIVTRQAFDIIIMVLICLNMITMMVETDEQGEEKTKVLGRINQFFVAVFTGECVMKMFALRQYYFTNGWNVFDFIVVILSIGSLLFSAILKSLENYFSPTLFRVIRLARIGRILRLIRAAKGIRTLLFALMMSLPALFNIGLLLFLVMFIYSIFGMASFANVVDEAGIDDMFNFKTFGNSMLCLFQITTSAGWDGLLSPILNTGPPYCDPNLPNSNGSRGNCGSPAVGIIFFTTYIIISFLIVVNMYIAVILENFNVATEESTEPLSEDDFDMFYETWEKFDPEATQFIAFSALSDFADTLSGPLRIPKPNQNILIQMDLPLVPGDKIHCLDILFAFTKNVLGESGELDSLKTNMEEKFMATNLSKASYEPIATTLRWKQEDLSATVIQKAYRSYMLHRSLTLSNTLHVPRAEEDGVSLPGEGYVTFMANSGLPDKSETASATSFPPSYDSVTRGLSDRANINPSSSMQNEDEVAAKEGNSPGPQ
hPN3, sequence (Q9Y5Y9 whole entry, looked up): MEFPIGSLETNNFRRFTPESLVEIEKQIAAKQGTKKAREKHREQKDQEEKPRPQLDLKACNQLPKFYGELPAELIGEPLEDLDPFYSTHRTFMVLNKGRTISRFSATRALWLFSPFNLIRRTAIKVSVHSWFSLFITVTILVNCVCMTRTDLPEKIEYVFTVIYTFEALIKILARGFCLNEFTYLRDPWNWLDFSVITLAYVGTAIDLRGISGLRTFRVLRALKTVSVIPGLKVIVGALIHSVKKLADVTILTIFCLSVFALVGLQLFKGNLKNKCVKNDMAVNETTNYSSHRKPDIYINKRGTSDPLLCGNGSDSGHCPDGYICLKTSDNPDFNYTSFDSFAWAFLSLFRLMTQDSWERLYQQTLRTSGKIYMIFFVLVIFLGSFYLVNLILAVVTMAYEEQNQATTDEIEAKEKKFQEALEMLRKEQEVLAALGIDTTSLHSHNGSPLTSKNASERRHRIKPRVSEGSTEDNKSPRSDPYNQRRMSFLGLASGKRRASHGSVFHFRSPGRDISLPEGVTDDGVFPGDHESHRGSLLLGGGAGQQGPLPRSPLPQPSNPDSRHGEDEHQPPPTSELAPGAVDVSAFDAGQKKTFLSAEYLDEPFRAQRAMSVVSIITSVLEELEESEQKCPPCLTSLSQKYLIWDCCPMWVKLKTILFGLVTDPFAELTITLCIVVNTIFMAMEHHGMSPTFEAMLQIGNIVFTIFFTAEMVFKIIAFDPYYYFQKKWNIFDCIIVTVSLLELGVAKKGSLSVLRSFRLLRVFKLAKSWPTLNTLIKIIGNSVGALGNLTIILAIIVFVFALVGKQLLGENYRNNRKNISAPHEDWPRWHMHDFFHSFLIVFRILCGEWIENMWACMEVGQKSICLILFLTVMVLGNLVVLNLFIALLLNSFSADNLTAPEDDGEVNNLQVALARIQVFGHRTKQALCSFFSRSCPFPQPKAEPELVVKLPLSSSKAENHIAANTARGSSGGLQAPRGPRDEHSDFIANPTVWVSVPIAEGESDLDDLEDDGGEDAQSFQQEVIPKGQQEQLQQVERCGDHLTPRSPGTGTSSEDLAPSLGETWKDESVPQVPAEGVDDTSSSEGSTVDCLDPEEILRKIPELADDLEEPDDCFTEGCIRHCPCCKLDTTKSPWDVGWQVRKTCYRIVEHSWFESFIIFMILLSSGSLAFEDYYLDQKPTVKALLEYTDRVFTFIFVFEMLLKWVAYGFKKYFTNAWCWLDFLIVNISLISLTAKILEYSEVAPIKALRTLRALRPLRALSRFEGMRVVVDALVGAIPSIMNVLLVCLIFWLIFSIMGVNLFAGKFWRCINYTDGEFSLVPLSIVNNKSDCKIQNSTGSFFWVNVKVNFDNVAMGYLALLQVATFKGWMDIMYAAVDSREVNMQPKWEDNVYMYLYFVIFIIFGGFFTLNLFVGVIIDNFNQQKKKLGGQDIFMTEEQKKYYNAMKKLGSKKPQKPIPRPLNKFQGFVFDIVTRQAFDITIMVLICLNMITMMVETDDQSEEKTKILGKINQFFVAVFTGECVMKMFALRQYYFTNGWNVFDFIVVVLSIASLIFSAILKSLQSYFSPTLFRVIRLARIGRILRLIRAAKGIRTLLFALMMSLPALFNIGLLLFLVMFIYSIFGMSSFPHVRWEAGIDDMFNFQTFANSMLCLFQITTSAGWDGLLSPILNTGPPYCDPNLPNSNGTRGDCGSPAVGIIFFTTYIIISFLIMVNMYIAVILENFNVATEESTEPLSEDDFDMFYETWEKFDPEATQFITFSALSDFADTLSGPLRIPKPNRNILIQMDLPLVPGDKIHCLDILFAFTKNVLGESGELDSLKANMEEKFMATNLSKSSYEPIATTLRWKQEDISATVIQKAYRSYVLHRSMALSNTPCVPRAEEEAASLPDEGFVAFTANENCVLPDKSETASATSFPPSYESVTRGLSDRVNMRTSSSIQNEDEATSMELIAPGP

“10% bovine serum albumin: 10% bovine serum albumin solution, positive control in hypersensitivity test”: the “animals with hypersensitive reaction (+)” value in data set [1] ((+) scratching nose, pilo-erection, uneasiness, sneezing, shortness of breath, mild cyanosis, animals/8) is 4/8. The “animals with hypersensitive reaction (++)” value in [1] ((++) pilo-erection, manifest dyspnea, cyanosis, weakness of limbs, animals/8) is 3/8. In data set [1] ((+++) Death, animals/8), the “animals with hypersensitive reaction (+++)” value is 1/8. Also, the “animals with hypersensitive reaction (−)” value in data set [1] (guinea pig, in vivo) is 0/8.
Consider `CC(=O)Oc1ccccc1C(=O)O` [Aspirin], for which the “Percentage of inhibition (%)” value is 18.9% in data set [2] (Aspirin 100 mg/kg, Table 4 (sc)); 46.2% in [2] (Aspirin 200 mg/kg, Table 4 (sc)); 69.4% in data set [2] (Aspirin 300 mg/kg, Table 4 (sc)); 85.4% in data set [2] (Aspirin 400 mg/kg, Table 4 (sc)). Further, the “Average Writhing Incidents” value in [2] (setting [24]) turned out to be 22.1; in [2] (setting [25]), 14.3; in [2] (setting [26]), 7.2; in [2] (setting [27]), 2.7. In addition, the “Inhibition Rate %” value in data set [2] (setting [24]) is 21.7%; in data set [2] (setting [25]) it was 49.3%; in data set [2] (setting [26]) it was 74.4%; in data set [2] (setting [27]), 90.6%. In addition, in data set [2] (Aspirin, Table 4 (sc)), the “ID50 and 95% Confidence Interval” value was 198.8 mg/kg. Further, in [2] (Aspirin, Table 5 (im)), the “ID50 (95% Confidence Interval)” value stood at 183.8 mg/kg. Besides, in data set [3] (aspirin 400 mg/kg po), the “duration of analgesic effect” value was “about 2 hours”. The “onset of therapeutic effect” value in data set [3] (aspirin 400 mg/kg po) came to 20 min. Also, the “time to peak effect after dosing” value in data set [3] (aspirin 400 mg/kg po) was found to be 30 min. In addition, the “IR, inhibition rate” value was 38.4 in data set [3] (Table 10, 10 min); 41.1 in [3] (Table 10, 20 min); 89.2 in data set [3] (Table 10, 30 min); 74.1 in data set [3] (Table 10, 40 min); 65.9 in data set [3] (Table 10, 70 min); 37.1 in data set [3] (Table 10, 100 min). Also, the “IR, inhibition rate” value in data set [3] (Table 10, 130 min) came to 36.2; in [3] (Table 12, 10 min), 30.8; in data set [3] (Table 12, 20 min), 37.2; in data set [3] (Table 12, 30 min) it was 80.6; in data set [3] (Table 12, 45 min) it was 70.9; in data set [3] (Table 12, 60 min), 63.8. For the same molecule, the “IR, inhibition rate” value is given as 49.0 in [3] (Table 12, 90 min); 31.6 in data set [3] (Table 12, 120 min); 19.3 in data set [3] (Table 12, 150 min). The “AWI, average writhing incidence” value is listed as 1.98 in [3] (Table 10, 30 min); 4.8 in data set [3] (Table 10, 40 min); 6.3 in data set [3] (Table 10, 70 min); 19.5 in [3] (Table 12 (NS 28.2 ± 14.3), 10 min after dosing); 17.7 in data set [3] (Table 12, 20 min); 5.5 in data set [3] (Table 12, 30 min). The “AWI, average writhing incidence” value in [3] (Table 12, 45 min) came out at 8.2; in data set [3] (Table 12, 60 min), 10.2; in [3] (Table 12, 90 min), 14.4; in [3] (Table 12, 120 min), 19.3; in [3] (Table 12, 150 min), 22.8.
For the molecule `Cn1c(=O)c2c(ncn2C)n(C)c1=O` [Caffeine], the “Number of autonomic mobility (X ± SD)” value in data set [4] is 777 ± 178 •••.
For `O=C1c2cccc(O)c2C(=O)c2c(O)cccc21` [DAN], the “Number of revertant Salmonella colonies, TA102” value in data set [5] (DAN 100.0, +S9) is 906 ± 69; in data set [5] (DAN 100.0, −S9), 379 ± 99.
As to `CO[C@@]12[C@H](COC(N)=O)C3=C(C(=O)C(C)=C(N)C3=O)N1C[C@@H]1N[C@@H]12` [MMC], the “Chromosomal aberration rate (%)” value in data set [6] (24 hours) is reported as 72%; in data set [6] (48 hours), 99%.
As for `CCOC(=O)C1(c2ccccc2)CCN(C)CC1` [Meperidine], the “ID50 and 95% Confidence Interval” value in data set [2] (mouse, in vivo, sc) is on record as 1.8 mg/kg.
For `CC1(C)S[C@@H]2[C@H](NC(=O)Cc3ccccc3)C(=O)N2[C@H]1C(=O)[O-].[K+]` [Penicillin G-K, penicillin G-K], in data set [7] (setting [28]), the “Grade for stimulation reaction, Left side, rabbit 1” value was 4; the “Grade for stimulation reaction, Right side, rabbit 1” value turned out to be 4; the “Grade for stimulation reaction, Right side, rabbit 2” value was 4. Further, the “Grade for stimulation reaction, Left side, rabbit 2” value in [7] (rabbit, in vivo) is 4. The molecule further returned a Sum of grades in data set [7] (two rabbits, both sides) of 16.
One may read the IC50 as the concentration at which inhibition is half-maximal. For `N=C1NC(O)C2C3OC4(O)OC(C(O)C2(N1)C4O)C3(O)CO` (centres unmarked) [TTX, octahydro-12-(hydroxymethyl)-2-imino-5,9:7,10a-dimethano-10aH-(1,3)dioxocino(6,5-d)-pyrimidine-4,7,10,11,12-pentol], in data set [8], the “Sleeping time (X ± SD)” value was 35.1 ± 26.2 ||| min and 36.3 ± 16.7 ||| min and 26.6 ± 22.5 ||| min. Further, the vascular stimulation entry in data set [9] is reported as “did not produce any pronounced vascular stimulation”. Besides, in data set [1] (guinea pig, in vivo), the “animals with hypersensitive reaction (+)” value was 0/8, the “animals with hypersensitive reaction (++)” value is given as 0/8 and the “animals with hypersensitive reaction (−)” value is recorded as 8/8. For the same molecule, in [10], the “Body Weight Loss (%)” value was determined as 0.4 ± 0.8 %, the “Score of Withdrawal Symptoms” value stood at 2.6 ± 4.6 and the “toxic reaction on dose escalation” value was “significant toxic reaction (vomiting)”. Also, the “analgesic effect, times stronger than meperidine” value in data set [2] (mouse, in vivo) stood at 670 times. In addition, in [11], the “embryotoxicity or teratogenic action” value is on record as “No embryotoxicity or teratogenic action”. Further, the IC50 in [12] was roughly 100 µM. The micronucleus rate in data set [13] was 4.3 ‰. For the same molecule, in data set [14], the “effect on blood pressure, heart rate, electrocardiogram, respiratory rate and depth” value is “did not significantly affect”. The chromosomal aberration rates in [6] is recorded as 0˜2%. For the same molecule, the IC50 in [15] is 0.001 to 0.02 µM. For the same molecule, in data set [16], the “Side Effect(s)” value is recorded as “Numbness; also recorded: Numbness,; also recorded: nausea, vomit”; the addiction or withdrawal entry is reported as “No signs of addiction or withdrawal”; the blood pressure decrease is 10-15 mm Hg; the “duration of analgesic effect / total pain relief” value was in the range of 20 to 30 days. Also, in [16], the “duration of numbness or tingling” value was “at most 30 min”; the “onset of numbness or tingling in lips, tongue tip, fingers and toes” value is 10 to 20 min; the “pain at the conclusion of treatment” value was “entirely eliminated”; the “pain intensity of all subjects” value is on record as “reduced to 0 in all but one patient who recorded a 1”. Moreover, in [16], the “quality of life interference” value was 0; the “quality of life score” value is recorded as 6; the “time to noticeable pain relief, some subjects” value is reported as 5 min; the “time to pain relief (various degrees), all subjects” value was no more than 30 min. Besides, in data set [16], the “time to recovery of blood pressure” value was 40 to 50 min and the “time to take effect” value is 5 to 30 min. In [3] (mouse, in vivo, sc), the “duration of analgesic effect” value is reported as “about 5 hours”, the “onset of therapeutic effect” value turned out to be 15 min and the “time to peak effect after dosing” value was 60 min. In data set [17], the “decrease of AChE activity” value came out at 41.2% and the toxic symptoms entry is on record as “evident toxic symptoms”. Moreover, in [18], the “Jumping Frequency (X ± SD)” value was 0.70 ± 2.70 and 1.30 ± 3.90. The “Jumping Incidence (%)” value in data set [18] (sc) was 10.0*# %. Besides, in data set [19], the “Percentage change in body weight, Overall Mean X ± SD” value worked out at 3.2 and the “withdrawal symptom score (Mean ± SD)” value was determined as 0.0. Besides, the “analgesic effect, times stronger than morphine” value in [20] is reported as 2900 times. Moreover, the “analgesic effect, times stronger than morphine” value in data set [20] (sc) stood at 3200 times. Besides, the IC50 in data set [21] was 80 µM. Further, in data set [22], the “Score of body weight loss (Mean ± SD)” value amounted to 0.00 ± 0.00. The “Score of withdrawal symptoms (Mean ± SD)” value in data set [22] (sc) was 0.30 ± 0.90 and 0.20 ± 0.60. The in vitro haemolyzation entry in data set [23] is listed as “did not induce in vitro haemolyzation”.
In the case of `O=P1(N(CCCl)CCCl)NCCCO1` (centres unmarked) [cyclophosphamide], the teratogenic rate in data set [11] (female, Shanghai) is given as 100%. Further, the “Number of Micronucleus cells” value in data set [13] was 279.
